Assay results: patent US4150137A, “Pyridylalkyl esters of 2-(p-isobutylphenyl)acetic acid and propionic acids and use” (Hisamitsu Pharmaceutical Co. Inc., priority 1975, dated 1979)

Experiments:
male mice of dd-strain = assay type: in vivo; settings: death of animals 72 hours following administration
Procedure: Each test compound suspended in 0.5% tragacanth-saline was administered intraperitoneally or orally to male mice of dd-strain(body weight 16-24 g). The lethal dose was estimated from the death of animals 72 hours following administration.

carrageenin edema = experiment: Anti-inflammatory activity for oral route (carrageenin edema, hind paw); assay type: in vivo, rat (Wistar-strain); settings: percent inhibition divided by that of ibuprofen, carrageenin edema after 3 hours; for anti-inflammatory effect, oral, 10 mg/kg (relative inhibition, ibuprofen = 1.0): 10 mg/kg oral; for anti-inflammatory effect, oral, 50 mg/kg (relative inhibition, ibuprofen = 1.0): 50 mg/kg oral
Procedure: After 30 minutes 0.5-1.0% carrageenin suspended in the water for injection was injected subcutaneously to a hind paw. After 3 hours the carrageenin edema was measured by volume, and the percent inhibition was determined with respect to the results for the control animals.

[1] = test system: carrageenin-induced leakage of the pigment, dorsal skin; experiment: Anti-inflammatory activity for topical route (carrageenin, leakage of pigment in dorsal skin); assay type: in vivo, rat (Wistar-strain); settings: 1% in polyethylene glycol 300, percent inhibition divided by that of ibuprofen
Procedure: The dorsal skin of male rats of Wistar-strain(body weight: about 100 g) were depilated. Carrageenin suspension was injected intra-dermally at a dose of 250 γ/0.05 ml/site. […] Immediately after injection, the filter paper containing 125.2±18.0 mg of the polyethylene glycol was applied on the injected site. After 3 hours, 1% pontamine sky blue solution was injected intravenously at a dose of 0.5 ml/kg. After further 3 hours, the animals were sacrificed and their dorsal skin were removed to measure the area of leakage of the pigment. The percent inhibition was determined with respect to the results for the control animals.

writhing syndrome = experiment: Analgetic activity (acetic acid writhing syndrome); assay type: in vivo, mouse (dd-strain); settings: Mus musculus, 1 h; oral, mice, 0.6% acetic acid i.p. one hour later; Litchfield-Wilcoxon; read-out: analgetic effect ED50 (95% C.L.)
Procedure: Each test compound suspended in 0.5% tragacanth-saline was orally administered to dd-strain mice(body weight: 18-20 g). After one hour 0.6% acetic acid solution was injected intraperitoneally in a volume of 0.1 ml/10 g.

Compound: CC(C)Cc1ccc(C(C)C(=O)OCC(F)(F)F)cc1 (centres unmarked) [Compound 9, 2-(p-isobutylphenyl)propionic acid-2,2,2-trifluoroethyl ester]
- acute toxicity, oral (lethal dose) (male mice of dd-strain): 1000 to 2000 mg/kg
- anti-inflammatory effect, oral, 10 mg/kg (relative inhibition, ibuprofen = 1.0) (carrageenin edema): 0.8
- anti-inflammatory effect, oral, 50 mg/kg (relative inhibition, ibuprofen = 1.0) (carrageenin edema): 1.3
- anti-inflammatory effect, topical (relative inhibition, ibuprofen = 1.0) [1]: 3.6
- ED50 (writhing syndrome): 135 mg/kg

Compound: CC(C)Cc1ccc(C(C)C(=O)OCc2cccnc2Cl)cc1 (centres unmarked)
- acute toxicity, oral (lethal dose) (male mice of dd-strain): > 2000 mg/kg
- anti-inflammatory effect, oral, 10 mg/kg (relative inhibition, ibuprofen = 1.0) (carrageenin edema): 0.8
- anti-inflammatory effect, oral, 50 mg/kg (relative inhibition, ibuprofen = 1.0) (carrageenin edema): 2.5
- anti-inflammatory effect, topical (relative inhibition, ibuprofen = 1.0) [1]: 1.8
- ED50 (writhing syndrome): 762 mg/kg

Compound: CC(C)Cc1ccc(C(C)C(=O)OCC2CCCO2)cc1 (centres unmarked)
- acute toxicity, oral (lethal dose) (male mice of dd-strain): 1000 to 2000 mg/kg
- anti-inflammatory effect, oral, 10 mg/kg (relative inhibition, ibuprofen = 1.0) (carrageenin edema): 0.6
- anti-inflammatory effect, oral, 50 mg/kg (relative inhibition, ibuprofen = 1.0) (carrageenin edema): 0.9
- anti-inflammatory effect, topical (relative inhibition, ibuprofen = 1.0) [1]: 3.1
- ED50 (writhing syndrome): 91.6 mg/kg

Compound: COCOC(=O)C(C)c1ccc(CC(C)C)cc1 (centres unmarked) [Compound 12]
- acute toxicity, oral (lethal dose) (male mice of dd-strain): 500 to 1000 mg/kg
- anti-inflammatory effect, oral, 10 mg/kg (relative inhibition, ibuprofen = 1.0) (carrageenin edema): 1.0
- anti-inflammatory effect, oral, 50 mg/kg (relative inhibition, ibuprofen = 1.0) (carrageenin edema): 1.2
- anti-inflammatory effect, topical (relative inhibition, ibuprofen = 1.0) [1]: 2.5
- ED50 (writhing syndrome): 174 mg/kg
